{"source": "paper PMC9421654", "about": "“Discovery of Substituted Di(pyridin-2-yl)-1,2,4-thiadiazol-5-amines as Novel Macrofilaricidal Compounds for the Treatment of Human Filarial Infections” (Journal of Medicinal Chemistry, 2022)", "key": {"[1]": {"tested_on": "O. gutturosa adult male worms", "experiment": "O. gutturosa adult worm ex vivo assay, motility", "type": "cell-based, Onchocerca gutturosa", "details": "Onchocerca gutturosa", "method_in_brief": "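Adult male O. gutturosa from naturally infected cattle were cultured in supplemented MEM at 37 °C, 5% CO2, with four worms per concentration in serial 1-in-4 dilutions. Motility (0–10 scale) was scored every 24 h to 120 h. EC50 (geomean, n=2) for motility reduction came from 4PL fits, and viability was checked by MTT at 120 h.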"}, "[2]": {"tested_on": "O. gutturosa adult male worms", "experiment": "O. gutturosa adult worm ex vivo assay, MTT/formazan viability", "type": "cell-based, Onchocerca gutturosa", "details": "Onchocerca gutturosa, supplement; SD in brackets in the PDF table; read-out: O. gutturosa EC50 (uM) MTT viability inhibition", "method_in_brief": "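Adult male worms from naturally infected Gambian cattle were kept individually in MEM with 10% newborn calf serum at 37 °C, 5% CO2; four worms per concentration. Motility was scored 0-10 every 24 h to 120 h as a percentage of maximum, with ≥50% reduction versus untreated counted active. Afterwards, MTT (0.5 mg/mL, 30 min) formazan was read at 490 nm.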"}, "[3]": {"experiment": "Liver S9 metabolic stability assay, rat", "type": "in vitro ADME", "details": "3 μM, 60 min", "method_in_brief": "(§1)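 Rat and human liver S9 (0.75 and 1.2 mg/ml) with 1 mM NADPH, 0.5 mM UDPGA, 2.5 mM GSH, 0.05 mg/ml PAPS, 3µM substrate, 60 min at 37 °C in Tris/MgCl2 pH 7.4. Mouse microsomes 0.3 mg/mL, 1 mM NADPH, 3µM, 30 min, phosphate pH 7.4. LC-MS/MS, % remaining, triplicate.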"}, "[4]": {"experiment": "Liver S9 metabolic stability assay, human", "type": "in vitro ADME", "details": "3 μM, 60 min", "method_in_brief": "as §1"}, "[5]": {"experiment": "Mouse pharmacokinetics", "type": "in vivo", "details": "male CD-1 mouse, PO 30 mg/kg suspension", "description": "All animal experiments were approved by the Institutional Animal Care and Use Committee (IACUC) of Bristol Myers Squibb."}, "[6]": {"tested_on": "THLE-2 cells", "experiment": "THLE-2 cytotoxicity assay (ATP)", "details": "Homo sapiens, THLE-2, 24 h, read-out: THLE IC50", "method_in_brief": "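THLE-2 cells in supplemented LHC-8 medium were exposed for 24 or 72 h to final concentrations of 0.01–300 μM. Viability was read as ATP by CellTiter-Glo luminescence and normalized to DMSO vehicle. IC50 came from nonlinear regression of dose-response curves.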"}, "[7]": {"tested_on": "L. sigmodontis adult worms", "parameters": "method as in PMID 35834918", "details": "infected mice; cited from earlier work"}, "[8]": {"experiment": "Kinetic solubility measurement", "type": "physicochemical", "details": "10 mM DMSO stock solutions", "method_in_brief": "(§2)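 Human and rat liver microsomes (0.3 mg/mL) with 1 mM NADPH and 3µM substrate, 30 minutes at 37 °C in pH 7.4 phosphate/MgCl2, triplicate; LC-MS/MS percentage remaining. LogD: octanol/aqueous buffer (pH 7.4, 2.2, 6.8, 5), 24 h shaking at room temperature. Kinetic solubility: 200 µM, 2% DMSO, 24 h, filtered.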"}, "[9]": {"experiment": "Liver microsome metabolic stability assay, rat", "type": "in vitro ADME", "details": "Table 1; 3 μM, 30 min", "method": "(§3) Liver Microsome Metabolic Stability Assay: Incubations were performed at 37 °C in a Dubnoff Shaking water bath using 2 mL 96-well incubation plates. Liver microsome protein concentration was 0.3 mg/mL the final concentration of NADPH was 1 mM. Substrate concentrations are 3µM, incubation time is 30 minutes, and all tests are done in triplicate. The incubation was conducted in 200 mM Phosphate buffer containing 2 mM magnesium chloride, pH=7.4 and the total incubation volume was 0.5 mL. Samples were analyzed via LC-MS/MS and reported as percentage remaining after 30minute incubation, which can then be converted to half-life and intrinsic clearance. […]"}, "[10]": {"experiment": "Liver microsome metabolic stability assay, human", "type": "in vitro ADME", "details": "3 μM, 30 min", "method": "as §3"}, "[11]": {"experiment": "LogD measurement (octanol-water)", "type": "physicochemical", "method_in_brief": "as §2"}, "[12]": {"target": "T1, P-glycoprotein (MDR1) (Homo sapiens, UniProt P08183)", "T1 construct": "expressed in transfected cells; host or cells: MDCK (Madin Darby canine kidney) cells", "T1 sequence (P08183 whole entry)": "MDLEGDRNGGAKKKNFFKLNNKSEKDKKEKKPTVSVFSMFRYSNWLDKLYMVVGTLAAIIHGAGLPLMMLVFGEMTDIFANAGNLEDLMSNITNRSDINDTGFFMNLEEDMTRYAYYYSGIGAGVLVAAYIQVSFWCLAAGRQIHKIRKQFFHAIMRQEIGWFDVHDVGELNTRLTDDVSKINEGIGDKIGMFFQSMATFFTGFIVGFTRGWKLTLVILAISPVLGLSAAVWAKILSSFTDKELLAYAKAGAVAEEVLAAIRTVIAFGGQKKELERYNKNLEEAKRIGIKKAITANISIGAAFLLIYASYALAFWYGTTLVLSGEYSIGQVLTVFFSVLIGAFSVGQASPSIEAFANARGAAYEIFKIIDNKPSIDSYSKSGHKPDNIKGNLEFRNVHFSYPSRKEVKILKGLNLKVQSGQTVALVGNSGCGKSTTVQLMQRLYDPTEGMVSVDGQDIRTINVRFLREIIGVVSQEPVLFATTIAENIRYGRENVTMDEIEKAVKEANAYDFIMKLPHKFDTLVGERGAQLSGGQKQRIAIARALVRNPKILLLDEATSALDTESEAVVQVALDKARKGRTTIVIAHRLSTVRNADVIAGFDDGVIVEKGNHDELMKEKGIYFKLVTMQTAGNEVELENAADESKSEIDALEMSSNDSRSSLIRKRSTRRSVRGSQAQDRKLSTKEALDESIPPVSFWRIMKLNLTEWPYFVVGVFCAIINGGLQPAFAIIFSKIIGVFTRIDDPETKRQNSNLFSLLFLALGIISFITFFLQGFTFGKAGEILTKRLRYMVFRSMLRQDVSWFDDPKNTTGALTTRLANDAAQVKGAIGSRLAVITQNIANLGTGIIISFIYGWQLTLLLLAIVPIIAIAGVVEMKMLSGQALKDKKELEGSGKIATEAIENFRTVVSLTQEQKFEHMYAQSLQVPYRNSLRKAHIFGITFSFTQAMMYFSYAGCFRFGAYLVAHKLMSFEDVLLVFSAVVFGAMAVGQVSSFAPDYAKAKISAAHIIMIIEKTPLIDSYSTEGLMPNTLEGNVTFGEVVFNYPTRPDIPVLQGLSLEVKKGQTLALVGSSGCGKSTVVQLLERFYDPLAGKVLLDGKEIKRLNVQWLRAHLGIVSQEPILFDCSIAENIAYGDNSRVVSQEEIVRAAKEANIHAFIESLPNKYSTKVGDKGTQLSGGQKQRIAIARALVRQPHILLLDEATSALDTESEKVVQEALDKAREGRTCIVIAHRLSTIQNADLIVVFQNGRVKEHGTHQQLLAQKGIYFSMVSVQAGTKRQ", "experiment": "MDCK/MDR1 permeability and efflux", "type": "in vitro ADME", "details": "dog", "description": "(§4) Our approach was to target compounds with efflux ratio (ER) >2.5 in the MDCK cell line transfected with MDR1 (multidrug resistance-1 transfected Madin Darby canine kidney cell line). […] Our goal was to impart structural elements designed to impart Pgp recognition."}, "[13]": {"target": "T2, P-gp (MDR1) (Homo sapiens, UniProt P08183)", "T2 construct": "expressed in transfected cells; host or cells: MDCK (Madin Darby canine kidney) cells", "T2 sequence (P08183 whole entry)": "as above", "experiment": "MDCK/MDR1 permeability and efflux", "type": "in vitro ADME", "details": "dog", "description": "as §4"}, "[14]": {"target": "T3, hERG potassium channels (KCNH2, expressed in HEK293 cells) (Homo sapiens, UniProt Q12809)", "T3 construct": "expressed in transfected cells", "T3 sequence (Q12809 whole entry)": "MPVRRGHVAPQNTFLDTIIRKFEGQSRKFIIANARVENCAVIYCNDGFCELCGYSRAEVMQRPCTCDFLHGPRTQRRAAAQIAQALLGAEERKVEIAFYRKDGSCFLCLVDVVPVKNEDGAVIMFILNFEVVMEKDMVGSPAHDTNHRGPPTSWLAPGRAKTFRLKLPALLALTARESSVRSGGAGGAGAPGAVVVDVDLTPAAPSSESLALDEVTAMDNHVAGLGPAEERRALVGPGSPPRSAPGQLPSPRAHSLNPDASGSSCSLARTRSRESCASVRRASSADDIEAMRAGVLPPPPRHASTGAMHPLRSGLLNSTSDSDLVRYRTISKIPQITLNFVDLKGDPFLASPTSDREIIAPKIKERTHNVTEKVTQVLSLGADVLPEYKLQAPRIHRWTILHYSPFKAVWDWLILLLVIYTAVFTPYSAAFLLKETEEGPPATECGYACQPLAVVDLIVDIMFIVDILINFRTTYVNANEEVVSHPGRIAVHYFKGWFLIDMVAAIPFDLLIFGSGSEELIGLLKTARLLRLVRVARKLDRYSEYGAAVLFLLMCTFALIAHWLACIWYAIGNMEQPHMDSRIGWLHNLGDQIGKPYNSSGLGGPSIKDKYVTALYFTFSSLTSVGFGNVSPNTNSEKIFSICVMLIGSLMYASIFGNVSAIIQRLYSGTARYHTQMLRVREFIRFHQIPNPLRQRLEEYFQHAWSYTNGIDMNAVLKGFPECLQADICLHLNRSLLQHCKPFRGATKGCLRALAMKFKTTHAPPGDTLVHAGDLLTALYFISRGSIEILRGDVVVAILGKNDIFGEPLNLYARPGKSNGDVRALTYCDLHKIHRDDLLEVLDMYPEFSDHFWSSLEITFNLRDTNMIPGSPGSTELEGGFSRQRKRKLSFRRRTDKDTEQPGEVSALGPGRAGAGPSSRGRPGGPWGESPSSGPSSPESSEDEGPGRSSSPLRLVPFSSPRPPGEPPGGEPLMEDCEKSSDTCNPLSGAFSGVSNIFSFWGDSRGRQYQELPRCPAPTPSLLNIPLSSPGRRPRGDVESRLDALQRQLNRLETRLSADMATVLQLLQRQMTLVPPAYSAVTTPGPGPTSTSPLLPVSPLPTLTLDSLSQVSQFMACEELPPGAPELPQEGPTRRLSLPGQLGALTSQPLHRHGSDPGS", "experiment": "hERG inhibition", "type": "cell-based", "details": "supplement"}, "[15]": {"tested_on": "L. sigmodontis adult worms", "experiment": "In vivo efficacy, L. sigmodontis-infected jirds", "parameters": "species or system jird (Meriones unguiculatus)", "details": "2 mg/kg QD 5d SC"}, "[16]": {"tested_on": "L. sigmodontis adult worms", "details": "mouse, in vivo"}, "[17]": {"details": "read-out: O. gutturosa EC50 μM (SD), ex vivo adult worm motility reduction, SD in brackets"}, "[18]": {"details": "read-out: O. gutturosa EC50 (uM) motility inhibition, supplement, SD in brackets in the PDF table"}, "[19]": {"details": "supplement, read-out: measured logD"}}, "note": "“And” between values parts separate entries of the source, which are not always exact repeats. Identical values can stand only once. Like-named read-outs stand apart in the source and are kept apart here.", "data": [{"compound": "COc1ccc(Nc2nc(-c3ccccn3)cs2)nc1", "note": "[Compound 1]", "values": [{"measurement": "EC50", "setting": "[1]; [17]", "result": 0.27, "unit": "µM"}, {"measurement": "EC50", "setting": "[2]", "result": 0.94, "unit": "µM"}, {"measurement": "Rat S9 metabolic stability", "setting": "[3]", "result": 51, "unit": "% remaining"}, {"measurement": "Human S9 metabolic stability", "setting": "[4]", "result": 59, "unit": "% remaining"}, {"measurement": "AUC(0-inf)", "setting": "[5]", "result": "1.58 ± 0.27", "unit": "µM·h"}, {"measurement": "Cmax", "setting": "[5]", "result": "690 ± 180", "unit": "nM"}, {"measurement": "Tmax", "setting": "[5]", "result": "30 ± 0", "unit": "min"}, {"measurement": "IC50", "setting": "[6]", "result": 72.4, "unit": "µM"}, {"measurement": "reduction of adult L. sigmodontis worms", "setting": "[7]", "result": 68, "unit": "%"}]}, {"compound": "COc1ccc(Nc2nc(-c3ccccn3)ns2)nc1", "note": "[Compound 2]", "values": [{"measurement": "EC50", "setting": "[1]; [17]", "result": 1.7, "unit": "µM"}, {"measurement": "EC50", "setting": "[2]", "result": 1.5, "unit": "µM"}, {"measurement": "solubility kinetic at 24 h", "setting": "[8]", "result": 62.7, "unit": "µM"}, {"measurement": "Rat Microsomes", "setting": "[9]", "result": 78, "unit": "% remaining"}, {"measurement": "Human Microsomes", "setting": "[10]", "result": 90, "unit": "% remaining"}, {"measurement": "AUC(0-inf)", "setting": "[5]", "result": "3.61 ± 0.86", "unit": "µM·h"}, {"measurement": "Cmax", "setting": "[5]", "result": "1260 ± 290", "unit": "nM"}, {"measurement": "Tmax", "setting": "[5]", "result": "78 ± 30", "unit": "min"}, {"measurement": "IC50", "setting": "[6]", "result": "> 300", "unit": "µM"}]}, {"compound": "Cc1cccnc1Nc1nnc(-c2ccc(OC3CCOCC3)cn2)s1", "note": "[Compound 4, 3-Methyl-N-{5-[5-(oxan-4-yloxy)pyridin-2-yl]-1,3,4-thiadiazol-2-yl}pyridin-2-amine]", "values": [{"measurement": "EC50", "setting": "[1]; [17]", "result": 2.6, "unit": "µM"}, {"measurement": "EC50", "setting": "[1]; [18]", "result": "> 12", "unit": "µM"}, {"measurement": "EC50", "setting": "[2]", "result": 2.8, "unit": "µM"}, {"measurement": "solubility kinetic at 24 h", "setting": "[8]", "result": 0.4, "unit": "µM"}, {"measurement": "logD at 24 h", "setting": "[11]; [19]", "result": 2.7}, {"measurement": "Rat Microsomes", "setting": "[9]", "result": 89, "unit": "% remaining"}, {"measurement": "Human Microsomes", "setting": "[10]", "result": 100, "unit": "% remaining"}]}, {"compound": "Cc1cccnc1Nc1nsc(-c2ccc(OC3CCOCC3)cn2)n1", "note": "[Compound 5, N-(3-Methylpyridin-2-yl)-5-(5-((tetrahydro-2h-pyran-4-yl)oxy)pyridin-2-yl)-1,2,4-thiadiazol-3-amine]", "values": [{"measurement": "solubility kinetic at 24 h", "setting": "[8]", "result": 182, "unit": "µM"}, {"measurement": "logD at 24 h", "setting": "[11]; [19]", "result": 2.15}, {"measurement": "Rat Microsomes", "setting": "[9]", "result": 89, "unit": "% remaining"}, {"measurement": "Human Microsomes", "setting": "[10]", "result": 77, "unit": "% remaining"}]}, {"compound": "Cc1cccnc1Nc1nnc(-c2ccc(OC3CCOCC3)cn2)o1", "note": "[Compound 7, (3-Methyl-pyridin-2-yl)-{5-[5-(tetrahydro-pyran-4-yloxy)-pyridin-2-yl]-[1,3,4]oxadiazol-2-yl}-amine]", "values": [{"measurement": "EC50", "setting": "[1]; [17]", "result": 0.94, "unit": "µM"}, {"measurement": "EC50", "setting": "[1]; [18]", "result": 0.935, "unit": "µM"}, {"measurement": "EC50", "setting": "[2]", "result": 6.5, "unit": "µM"}, {"measurement": "solubility kinetic at 24 h", "setting": "[8]", "result": 12.8, "unit": "µM"}, {"measurement": "logD at 24 h", "setting": "[11]; [19]", "result": 1.55}, {"measurement": "Rat Microsomes", "setting": "[9]", "result": 39, "unit": "% remaining"}, {"measurement": "Human Microsomes", "setting": "[10]", "result": 83, "unit": "% remaining"}]}, {"compound": "CC(C)Oc1ccc(-c2nsc(Nc3ncccc3C(N)=O)n2)nc1", "note": "[Compound 59, 2-((3-(5-Isopropoxypyridin-2-yl)-1,2,4-thiadiazol-5-yl)amino)nicotinamide]", "values": [{"measurement": "EC50", "setting": "[1]; [17]", "result": 2.6, "unit": "µM"}, {"measurement": "EC50", "setting": "[2]", "result": 3.4, "unit": "µM"}, {"measurement": "solubility kinetic at 24 h", "setting": "[8]", "result": 0.3, "unit": "µM"}, {"measurement": "logD at 24 h", "setting": "[11]; pH 7.4, read-out: logD", "result": 1.6}, {"measurement": "logD at 24 h", "setting": "[11]; [19]", "result": 1.6}, {"measurement": "Papp A→B", "setting": "[12]", "result": 0.79, "unit": "×10⁻⁶ cm/s"}, {"measurement": "Papp A→B", "setting": "[13]", "result": 0.8, "unit": "×10⁻⁶ cm/s"}, {"measurement": "IC50", "setting": "[14]", "result": "> 30", "unit": "µM"}]}, {"compound": "Flubendazole [FBZ, reference compound]", "values": [{"measurement": "adult worm burden reduction", "setting": "[15]; jirds infected SC with 40 L3 larvae (Fig 2C)", "result": -100, "unit": "%"}, {"measurement": "reduction of adult worm burden", "setting": "[15]; patent, naturally infected jirds", "result": -100, "unit": "%"}, {"measurement": "adult worm burden reduction", "setting": "[16]", "result": "-98.8% and -100%"}]}]}
